With `C[C@@H]1CCCN1CCc1nc2cc(-c3ccc(C#N)cc3)ccc2o1` [Example 24E, 4-{2-[2-(2-(R)-methyl-pyrrolidin-1-yl)-ethyl]-benzooxazol-5-yl}-benzonitrile], the melting point was in the range of 70 to 72 °C.

Broadly, the melting point is the temperature of the solid-liquid transition.

Values taken from US20040224953A1, “Fused bicyclic-substituted amines as histamine-3 receptor ligands” (priority 2003, published 2004).
